Source: patent US6770597B2, “Benzohydrazide derivatives as herbicides and desiccant compositions containing them” (Ishihara Sangyo Kaisha, Ltd., priority 2002, dated 2004)

Assays:
Assay type in all cases: in vivo
[1] = test system: barnyardgrass (Echinochloa crus-galli, ECHCG); test: Greenhouse herbicide screen, post-emerge application, phytotoxicity rating; settings: POST emergent, 14 days after application, scale 0-100
Outline: (§1)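 Sown 1 d (pre) or 8–21 d (post) ahead; sprayed 15–1000 g ai/ha in acetone, 187 l/ha; nozzle 40–45 cm above canopy/soil; scored 0–100 at day 14.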

[2] = test system: cocklebur (Xanthium strumarium, XANST); test: as above; settings: POST emergent, 14 days after application, scale 0-100
Outline: as §1

[3] = test system: common ragweed (Ambrosia artemisiifolia L., AMBEL); test: as above; settings: POST emergent, 14 days after application, scale 0-100
Outline: as §1

[4] = test system: green foxtail (Setaria viridis, SETVI); test: as above; settings: POST emergent, 14 days after application, scale 0-100
Outline: as §1

[5] = test system: ivyleaf morningglory (Ipomoea hederacea, IPOHE); test: as above; settings: POST emergent, 14 days after application, scale 0-100
Outline: as §1

[6] = test system: johnsongrass (Sorghum halepense, SORHA); test: as above; settings: POST emergent, 14 days after application, scale 0-100
Outline: as §1

[7] = test system: lambsquarters (Chenopodium album, CHEAL); test: as above; settings: POST emergent, 14 days after application, scale 0-100
Outline: as §1

[8] = test system: large crabgrass (Digitaria sanguinalis, DIGSA); test: as above; settings: POST emergent, 14 days after application, scale 0-100
Outline: as §1

[9] = test system: redroot pigweed (Amaranthus retrofiexus, AMARE); test: as above; settings: POST emergent, 14 days after application
Outline: as §1

[10] = test system: sicklepod (Cassia obtusifolia, CASOB); test: as above; settings: POST emergent, 14 days after application, scale 0-100
Outline: as §1

[11] = test system: velvetleaf (Abutilon theophrasti, ABUTH); test: as above; settings: POST emergent, 14 days after application, scale 0-100
Outline: as §1

[12] = test system: field corn (Zea mays L., var. Dekalb 535, CORN); test: Greenhouse herbicide screen, post-emerge application, crop damage rating; settings: POST emergent, 14 days after application, scale 0-100
Outline: as §1

[13] = test system: soybean (Glycine max L., var. Pella 86, SOY); test: as above; settings: POST emergent, 14 days after application, scale 0-100
Outline: as §1

[14] = test system: upland rice (Oryza sp., var.Cocodrie, RICE); test: as above; settings: POST emergent, 14 days after application, scale 0-100
Outline: as §1

[15] = test system: wheat (Triticum aestivum L.); test: as above; settings: POST emergent, 14 days after application, scale 0-100
Outline: as §1

[16] = test system: barnyardgrass (Echinochloa crus-galli, ECHCG); test: Greenhouse herbicide screen, pre-emerge application, phytotoxicity rating; settings: PRE emergent, 14 days after application, rating scale 0-100
Outline: as §1

[17] = test system: cocklebur (Xanthium strumarium, XANST); test: as above; settings: PRE emergent, 14 days after application, rating scale 0-100
Outline: as §1

[18] = test system: common ragweed (Ambrosia artemisiifolia L., AMBEL); test: as above; settings: PRE emergent, 14 days after application, rating scale 0-100
Outline: as §1

[19] = test system: green foxtail (Setaria viridis, SETVI); test: as above; settings: PRE emergent, 14 days after application, rating scale 0-100
Outline: as §1

[20] = test system: ivyleaf morningglory (Ipomoea hederacea, IPOHE); test: as above; settings: PRE emergent, 14 days after application, rating scale 0-100
Outline: as §1

[21] = test system: johnsongrass (Sorghum halepense, SORHA); test: as above; settings: PRE emergent, 14 days after application, rating scale 0-100
Outline: as §1

[22] = test system: lambsquarters (Chenopodium album, CHEAL); test: as above; settings: PRE emergent, 14 days after application, rating scale 0-100
Outline: as §1

[23] = test system: large crabgrass (Digitaria sanguinalis, DIGSA); test: as above; settings: PRE emergent, 14 days after application, rating scale 0-100
Outline: as §1

[24] = test system: redroot pigweed (Amaranthus retrofiexus, AMARE); test: as above; settings: PRE emergent, 14 days after application, rating scale 0-100
Outline: as §1

[25] = test system: sicklepod (Cassia obtusifolia, CASOB); test: as above; settings: PRE emergent, 14 days after application, rating scale 0-100
Outline: as §1

[26] = test system: velvetleaf (Abutilon theophrasti, ABUTH); test: as above; settings: PRE emergent, 14 days after application, rating scale 0-100
Outline: as §1

[27] = test system: field corn (Zea mays L., var. Dekalb 535, CORN); test: Greenhouse herbicide screen, pre-emerge application, crop damage rating; settings: PRE emergent, 14 days after application, rating scale 0-100
Outline: as §1

[28] = test system: soybean (Glycine max L., var. Pella 86, SOY); test: as above; settings: PRE emergent, 14 days after application, rating scale 0-100
Outline: as §1

[29] = test system: upland rice (Oryza sp., var.Cocodrie, RICE); test: as above; settings: PRE emergent, 14 days after application, rating scale 0-100
Outline: as §1

[30] = test system: wheat (Triticum aestivum L.); test: as above; settings: PRE emergent, 14 days after application, rating scale 0-100
Outline: as §1

Question: Which results are given for `Cn1c(C(F)(F)F)cc(=O)n(-c2cc(C(=O)NNC(=O)OC(C)(C)C)c(Cl)cc2F)c1=O` [Compound 1-24, 2-chloro-5-(3,6-dihydro-3-methyl-2,6-dioxo-4-(trifluoromethyl)-1(2H)-pyrimidinyl)-4-fluoro-benzoic Acid, 2-(1,1-dimethylethyloxy)carbonyl Hydrazide]?
Answer: phytotoxicity rating ECHCO ([1]; 63 g ai/ha): 35; phytotoxicity rating ECHCO ([1]; 250 g ai/ha): 50; phytotoxicity rating XANST ([2]; 63 g ai/ha): 100; phytotoxicity rating XANST ([2]; 250 g ai/ha): 100; phytotoxicity rating AMBEL ([3]; 63 g ai/ha): 100; phytotoxicity rating AMBEL ([3]; 250 g ai/ha): 100; phytotoxicity rating SETVI ([4]; 63 g ai/ha): 35; phytotoxicity rating SETVI ([4]; 250 g ai/ha): 60; phytotoxicity rating IPOHE ([5]; 63 g ai/ha): 100; phytotoxicity rating IPOHE ([5]; 250 g ai/ha): 100; phytotoxicity rating SORHA ([6]; 63 g ai/ha): 35; phytotoxicity rating SORHA ([6]; 250 g ai/ha): 55; phytotoxicity rating CHEAL ([7]; 63 g ai/ha): 100; phytotoxicity rating CHEAL ([7]; 250 g ai/ha): 100; phytotoxicity rating DIGSA ([8]; 63 g ai/ha): 20; phytotoxicity rating DIGSA ([8]; 250 g ai/ha): 35; phytotoxicity rating AMARE ([9]; 63 g ai/ha, scale 0-100 (0 no damage, 100 complete death)): 100; phytotoxicity rating AMARE ([9]; 250 g ai/ha, scale 0-100): 100; phytotoxicity rating CASOB ([10]; 63 g ai/ha): 75; phytotoxicity rating CASOB ([10]; 250 g ai/ha): 95; phytotoxicity rating ABUTH ([11]; 63 g ai/ha): 100; phytotoxicity rating ABUTH ([11]; 250 g ai/ha): 100; crop damage rating CORN ([12]; 63 g ai/ha): 90; crop damage rating CORN ([12]; 250 g ai/ha): 95; crop damage rating SOY ([13]; 63 g ai/ha): 8; crop damage rating SOY ([13]; 250 g ai/ha): 15; crop damage rating RICE ([14]; 63 g ai/ha): 60; crop damage rating RICE ([14]; 250 g ai/ha): 65; crop damage rating WHEAT ([15]; 63 g ai/ha): 15; crop damage rating WHEAT ([15]; 250 g ai/ha): 60; phytotoxicity rating ECHCG ([16]; 63 g ai/ha): 0; phytotoxicity rating ECHCG ([16]; 250 g ai/ha): 50; phytotoxicity rating XANST ([17]; 63 g ai/ha): 50; phytotoxicity rating XANST ([17]; 250 g ai/ha): 90; phytotoxicity rating AMBEL ([18]; 63 g ai/ha): 50; phytotoxicity rating AMBEL ([18]; 250 g ai/ha): 75; phytotoxicity rating SETVI ([19]; 63 g ai/ha): 10; phytotoxicity rating SETVI ([19]; 250 g ai/ha): 45; phytotoxicity rating IPOHE ([20]; 63 g ai/ha): 100; phytotoxicity rating IPOHE ([20]; 250 g ai/ha): 100; phytotoxicity rating SORHA ([21]; 63 g ai/ha): 0; phytotoxicity rating SORHA ([21]; 250 g ai/ha): 40; phytotoxicity rating CHEAL ([22]; 63 g ai/ha): 100; phytotoxicity rating CHEAL ([22]; 250 g ai/ha): 100; phytotoxicity rating DIGSA ([23]; 63 g ai/ha): 0; phytotoxicity rating DIGSA ([23]; 250 g ai/ha): 40; phytotoxicity rating AMARE ([24]; 63 g ai/ha): 80; phytotoxicity rating AMARE ([24]; 250 g ai/ha): 99; phytotoxicity rating CASOB ([25]; 63 g ai/ha): 50; phytotoxicity rating CASOB ([25]; 250 g ai/ha): 95; phytotoxicity rating ABUTH ([26]; 63 g ai/ha): 98; phytotoxicity rating ABUTH ([26]; 250 g ai/ha): 99; crop damage rating CORN ([27]; 63 g ai/ha): 0; crop damage rating CORN ([27]; 250 g ai/ha): 100; crop damage rating SOY ([28]; 63 g ai/ha): 50; crop damage rating SOY ([28]; 250 g ai/ha): 100; crop damage rating RICE ([29]; 63 g ai/ha): 5; crop damage rating RICE ([29]; 250 g ai/ha): 30; crop damage rating WHEAT ([30]; 63 g ai/ha): 20; crop damage rating WHEAT ([30]; 250 g ai/ha): 60
